Source: PubChem BioAssay AID248 (DTP/NCI, 2004)
Where “and” joins values, the source holds several entries; their conditions need not be identical. Equal values may be shown once. Toxic doses and inconclusive results are not listed.

Tested on: L1210 leukemia ip in BDF1 mice, survival T/C
Experiment: NCI In Vivo Anticancer Drug Screen. Data for tumor model L1210 Leukemia (intraperitoneal) in B6D2F1 (BDF1) mice
Conditions: higher = longer survival
Method in brief: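 Read-out is survival time, reported as the treated-group measurement over the vehicle-control measurement.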

[1] = endpoint: mean survival time, dose: 12.5 mg/kg/injection, schedule: Q01DX009 (ip), vehicle: saline
[2] = endpoint: mean survival time, dose: 100.0 mg/kg/injection, schedule: Q01DX009 (ip), vehicle: saline

COc1cc(NS(C)(=O)=O)ccc1Nc1c2ccccc2nc2ccccc12
T/C (endpoint: mean survival time, dose: 0.25 mg/kg/injection, schedule: Q03HX008 (ip), vehicle: other): 120 % of control | T/C (endpoint: mean survival time, dose: 0.38 mg/kg/injection, schedule: Q01DX009 (ip), vehicle: saline with Tween-80): 185 % of control | T/C (endpoint: mean survival time, dose: 0.75 mg/kg/injection, schedule: Q01DX009 (sc), vehicle: saline): 118 % of control | T/C (endpoint: mean survival time, dose: 1.0 mg/kg/injection, schedule: Q01DX009 (ip), vehicle: Klucel (hydroxypropylcellulose) (HPC)): 160 % of control | T/C (endpoint: mean survival time, dose: 1.25 mg/kg/injection, schedule: Q01DX009 (sc), vehicle: saline): 112 % of control | T/C (endpoint: mean survival time, dose: 1.35 mg/kg/injection, schedule: Q01DX009 (ip), vehicle: acetone): 151 % of control | T/C (endpoint: mean survival time, dose: 1.5 mg/kg/injection, schedule: Q01DX009 (sc), vehicle: saline): 113 % of control | T/C (endpoint: mean survival time, dose: 1.56 mg/kg/injection, schedule: Q01DX009 (ip), vehicle: saline with Tween-80): 236 % of control | T/C (endpoint: mean survival time, dose: 1.8 mg/kg/injection, schedule: Q01DX009 (ip), vehicle: water): 150 % of control | T/C (endpoint: mean survival time, dose: 1.9 mg/kg/injection, schedule: Q01DX001 (ip), vehicle: other): 116 % of control | T/C (endpoint: mean survival time, dose: 2.0 mg/kg/injection, schedule: Q03HX008 (ip), vehicle: other): 203 % of control | T/C (endpoint: mean survival time, dose: 2.05 mg/kg/injection, schedule: Q01DX009 (ip), vehicle: Klucel (hydroxypropylcellulose) (HPC)): 155 % of control | T/C (endpoint: mean survival time, dose: 2.05 mg/kg/injection, schedule: Q01DX009 (ip), vehicle: acetone): 187 % of control | T/C (endpoint: mean survival time, dose: 2.5 mg/kg/injection, schedule: Q01DX009 (sc), vehicle: saline): 110 % of control and 121 % of control | T/C (endpoint: mean survival time, dose: 3.0 mg/kg/injection, schedule: Q01DX009 (ip), vehicle: Klucel (hydroxypropylcellulose) (HPC)): 176 % of control | T/C (endpoint: mean survival time, dose: 3.0 mg/kg/injection, schedule: Q01DX009 (ip), vehicle: water): 174 % of control | T/C (endpoint: mean survival time, dose: 3.0 mg/kg/injection, schedule: Q01DX009 (sc), vehicle: saline): 114 % of control | T/C (endpoint: mean survival time, dose: 3.07 mg/kg/injection, schedule: Q01DX009 (ip), vehicle: Klucel (hydroxypropylcellulose) (HPC)): 157 % of control | T/C (endpoint: mean survival time, dose: 3.07 mg/kg/injection, schedule: Q01DX009 (ip), vehicle: acetone): 188 % of control | T/C (endpoint: mean survival time, dose: 3.12 mg/kg/injection, schedule: Q01DX009 (ip), vehicle: acetone): 188 % of control | T/C (endpoint: mean survival time, dose: 3.12 mg/kg/injection, schedule: Q01DX009 (ip), vehicle: saline with Tween-80): 178 % of control and 216 % of control | T/C (endpoint: mean survival time, dose: 3.75 mg/kg/injection, schedule: Q01DX001 (ip), vehicle: other): 124 % of control | T/C (endpoint: mean survival time, dose: 4.0 mg/kg/injection, schedule: Q01DX009 (ip), vehicle: Klucel (hydroxypropylcellulose) (HPC)): 154 % of control | T/C (endpoint: mean survival time, dose: 5.0 mg/kg/injection, schedule: Q01DX009 (ip), vehicle: saline with Tween-80): 153 % of control | T/C (endpoint: mean survival time, dose: 5.0 mg/kg/injection, schedule: Q01DX009 (ip), vehicle: water): 113 % of control | T/C (endpoint: mean survival time, dose: 5.0 mg/kg/injection, schedule: Q01DX009 (sc), vehicle: saline): 123 % of control | T/C (endpoint: mean survival time, dose: 6.0 mg/kg/injection, schedule: Q01DX009 (ip), vehicle: Klucel (hydroxypropylcellulose) (HPC)): 150 % of control | T/C (endpoint: mean survival time, dose: 6.25 mg/kg/injection, schedule: Q01DX009 (ip), vehicle: acetone): 186 % of control | T/C (endpoint: mean survival time, dose: 7.5 mg/kg/injection, schedule: Q04DX003 (ip), vehicle: other): 156 % of control | T/C (endpoint: mean survival time, dose: 8.0 mg/kg/injection, schedule: Q01DX009 (ip), vehicle: other): 91 % of control | T/C (endpoint: mean survival time, dose: 8.4 mg/kg/injection, schedule: Q01DX009 (ip), vehicle: water): 89 % of control | T/C (endpoint: mean survival time, dose: 10.0 mg/kg/injection, schedule: Q01DX009 (ip), vehicle: saline with Tween-80): 207 % of control | T/C (endpoint: mean survival time, dose: 12.5 mg/kg/injection, schedule: Q01DX009 (ip), vehicle: acetone): 90 % of control | T/C (endpoint: mean survival time, dose: 12.5 mg/kg/injection, schedule: Q01DX009 (ip), vehicle: saline with Tween-80): 93 % of control | T/C [1]: 103 % of control | T/C (endpoint: mean survival time, dose: 15.0 mg/kg/injection, schedule: Q04DX003 (ip), vehicle: other): 294 % of control | T/C (endpoint: mean survival time, dose: 18.75 mg/kg/injection, schedule: Q01DX001 (ip), vehicle: saline with Tween-80): 160 % of control | T/C (endpoint: mean survival time, dose: 25.0 mg/kg/injection, schedule: Q01DX001 (ip), vehicle: Klucel (hydroxypropylcellulose) (HPC)): 152 % of control | T/C (endpoint: mean survival time, dose: 30.0 mg/kg/injection, schedule: Q01DX001 (ip), vehicle: Klucel (hydroxypropylcellulose) (HPC)): 254 % of control | T/C (endpoint: mean survival time, dose: 30.0 mg/kg/injection, schedule: Q01DX001 (ip), vehicle: other): 91 % of control | T/C (endpoint: mean survival time, dose: 37.5 mg/kg/injection, schedule: Q01DX001 (ip), vehicle: saline with Tween-80): 178 % of control and 270 % of control | T/C (endpoint: mean survival time, dose: 45.0 mg/kg/injection, schedule: Q01DX001 (ip), vehicle: Klucel (hydroxypropylcellulose) (HPC)): 160 % of control | T/C (endpoint: mean survival time, dose: 50.0 mg/kg/injection, schedule: Q01DX001 (ip), vehicle: saline): 158 % of control and 175 % of control | T/C (endpoint: mean survival time, dose: 60.0 mg/kg/injection, schedule: Q01DX001 (ip), vehicle: Klucel (hydroxypropylcellulose) (HPC)): 160 % of control and 255 % of control | T/C (endpoint: mean survival time, dose: 75.0 mg/kg/injection, schedule: Q01DX001 (ip), vehicle: saline): 202 % of control and 236 % of control | T/C (endpoint: mean survival time, dose: 150.0 mg/kg/injection, schedule: Q01DX001 (ip), vehicle: saline with Tween-80): 232 % of control | T/C (endpoint: median survival time, dose: 1.0 mg/kg/injection, schedule: Q01DX009 (sc), vehicle: other): 121 % of control | T/C (endpoint: median survival time, dose: 2.0 mg/kg/injection, schedule: Q01DX009 (oral), vehicle: other): 102 % of control | T/C (endpoint: median survival time, dose: 4.0 mg/kg/injection, schedule: Q01DX009 (oral), vehicle: other): 109 % of control | T/C (endpoint: median survival time, dose: 8.0 mg/kg/injection, schedule: Q01DX009 (oral), vehicle: other): 120 % of control | T/C (endpoint: median survival time, dose: 8.0 mg/kg/injection, schedule: Q01DX009 (sc), vehicle: other): 98 % of control

C[P+](c1ccc(F)cc1)(c1ccc(F)cc1)c1ccc(F)cc1
T/C (endpoint: mean survival time, dose: 25.0 mg/kg/injection, schedule: Q01DX009 (ip), vehicle: Klucel (hydroxypropylcellulose) (HPC)): 98 % of control | T/C (endpoint: mean survival time, dose: 50.0 mg/kg/injection, schedule: Q01DX009 (ip), vehicle: Klucel (hydroxypropylcellulose) (HPC)): 96 % of control | T/C (endpoint: mean survival time, dose: 100.0 mg/kg/injection, schedule: Q04DX003 (ip), vehicle: Klucel (hydroxypropylcellulose) (HPC)): 89 % of control

CCCCCCCCCCC(=O)NC1CCC(CC2CCCCC2)CC1 (centres undefined)
T/C (endpoint: mean survival time, dose: 100.0 mg/kg/injection, schedule: Q04DX003 (ip), vehicle: other): 101 % of control | T/C (endpoint: mean survival time, dose: 200.0 mg/kg/injection, schedule: Q04DX003 (ip), vehicle: other): 103 % of control | T/C (endpoint: mean survival time, dose: 400.0 mg/kg/injection, schedule: Q04DX003 (ip), vehicle: other): 101 % of control

O=C(NCCCl)NC1C(O)CCCC1O (centres undefined)
T/C (endpoint: mean survival time, dose: 100.0 mg/kg/injection, schedule: Q01DX001 (ip), vehicle: saline): 103 % of control | T/C (endpoint: mean survival time, dose: 200.0 mg/kg/injection, schedule: Q01DX001 (ip), vehicle: saline): 97 % of control | T/C (endpoint: mean survival time, dose: 400.0 mg/kg/injection, schedule: Q01DX001 (ip), vehicle: saline): 103 % of control

CN(C)C(N)=S
T/C [2]: 91 % of control | T/C (endpoint: mean survival time, dose: 200.0 mg/kg/injection, schedule: Q01DX009 (ip), vehicle: saline): 100 % of control | T/C (endpoint: mean survival time, dose: 400.0 mg/kg/injection, schedule: Q01DX009 (ip), vehicle: saline): 100 % of control

C(COCC1CO1)OCC1CO1 (centres undefined)
T/C (endpoint: mean survival time, dose: 6.25 mg/kg/injection, schedule: Q01DX009 (ip), vehicle: saline): 115 % of control | T/C [1]: 110 % of control | T/C (endpoint: mean survival time, dose: 25.0 mg/kg/injection, schedule: Q01DX009 (ip), vehicle: saline): 110 % of control and 118 % of control | T/C [2]: 120 % of control | T/C (endpoint: mean survival time, dose: 100.0 mg/kg/injection, schedule: Q04DX003 (ip), vehicle: saline): 122 % of control | T/C (endpoint: mean survival time, dose: 200.0 mg/kg/injection, schedule: Q01DX Z (ip), vehicle: saline): 121 % of control | T/C (endpoint: mean survival time, dose: 200.0 mg/kg/injection, schedule: Q04DX003 (ip), vehicle: saline): 91 % of control | T/C (endpoint: mean survival time, dose: 300.0 mg/kg/injection, schedule: Q01DX Z (ip), vehicle: saline): 114 % of control | T/C (endpoint: mean survival time, dose: 450.0 mg/kg/injection, schedule: Q01DX Z (ip), vehicle: saline): 122 % of control

CCC(NC(=O)CCl)C(=O)O (centres undefined)
T/C (endpoint: mean survival time, dose: 100.0 mg/kg/injection, schedule: Q04DX002 (ip), vehicle: saline): 120 % of control | T/C (endpoint: mean survival time, dose: 200.0 mg/kg/injection, schedule: Q04DX002 (ip), vehicle: saline): 103 % of control

CCCN=Cc1ccccc1O.CCCN=Cc1ccccc1O.[Ni]
T/C (endpoint: mean survival time, dose: 75.0 mg/kg/injection, schedule: Q01DX001 (ip), vehicle: other): 95 % of control | T/C (endpoint: mean survival time, dose: 150.0 mg/kg/injection, schedule: Q01DX001 (ip), vehicle: other): 108 % of control

CN(C)Cc1ccccc1COC(=O)c1ccc(Cl)cc1
T/C (endpoint: mean survival time, dose: 75.0 mg/kg/injection, schedule: Q04DX002 (ip), vehicle: saline): 102 % of control | T/C (endpoint: mean survival time, dose: 150.0 mg/kg/injection, schedule: Q04DX002 (ip), vehicle: saline): 94 % of control | T/C (endpoint: mean survival time, dose: 300.0 mg/kg/injection, schedule: Q04DX002 (ip), vehicle: saline): 96 % of control
